From US20250177359A1, “COMPOUNDS FOR USE IN THE TREATMENT OF CANCER AND INFLAMMATORY CONDITIONS” (priority 2022, published 2025) come the findings set out here.

As usually defined, the pIC50 is the IC50 on a negative log10 scale, so that one unit is a factor of ten.

pIC50: −log10 of the molar value. Where two headings read alike, the source gives them in different places.

The target of one assay is T1, TNKS2 (Homo sapiens, UniProt Q9H2K2).
T1 sequence (Q9H2K2 1-1166): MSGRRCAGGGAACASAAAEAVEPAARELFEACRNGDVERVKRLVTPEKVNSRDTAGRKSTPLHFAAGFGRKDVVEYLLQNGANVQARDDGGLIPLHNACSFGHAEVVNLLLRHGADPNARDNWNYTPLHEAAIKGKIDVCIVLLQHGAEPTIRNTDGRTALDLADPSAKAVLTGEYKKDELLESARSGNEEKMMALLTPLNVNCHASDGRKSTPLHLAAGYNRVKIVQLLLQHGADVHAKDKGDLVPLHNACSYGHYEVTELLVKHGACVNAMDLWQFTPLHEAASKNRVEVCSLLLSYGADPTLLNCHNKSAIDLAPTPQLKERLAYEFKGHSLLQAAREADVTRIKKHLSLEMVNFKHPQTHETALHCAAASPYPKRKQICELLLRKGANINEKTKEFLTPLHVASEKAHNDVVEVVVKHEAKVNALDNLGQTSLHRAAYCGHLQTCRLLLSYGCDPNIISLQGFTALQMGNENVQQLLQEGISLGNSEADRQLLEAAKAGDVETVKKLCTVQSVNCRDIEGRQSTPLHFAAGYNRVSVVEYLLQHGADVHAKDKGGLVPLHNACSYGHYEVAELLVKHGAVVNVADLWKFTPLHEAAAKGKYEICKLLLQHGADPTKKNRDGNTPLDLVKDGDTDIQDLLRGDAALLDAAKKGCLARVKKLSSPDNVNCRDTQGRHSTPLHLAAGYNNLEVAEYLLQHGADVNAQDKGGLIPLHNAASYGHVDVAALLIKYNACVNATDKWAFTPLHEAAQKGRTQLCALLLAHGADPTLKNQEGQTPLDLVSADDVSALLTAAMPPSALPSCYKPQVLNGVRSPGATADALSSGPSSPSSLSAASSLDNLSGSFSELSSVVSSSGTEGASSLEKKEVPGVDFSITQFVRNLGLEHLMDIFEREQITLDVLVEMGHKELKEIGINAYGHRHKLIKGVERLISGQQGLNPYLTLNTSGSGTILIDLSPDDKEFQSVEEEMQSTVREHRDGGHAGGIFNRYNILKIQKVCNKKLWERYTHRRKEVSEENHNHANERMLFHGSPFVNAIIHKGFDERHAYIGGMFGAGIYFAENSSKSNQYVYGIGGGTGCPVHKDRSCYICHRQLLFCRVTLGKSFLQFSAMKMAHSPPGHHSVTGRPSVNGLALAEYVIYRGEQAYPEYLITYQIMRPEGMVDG
Description: biochemical. As for the experimental part:
(§1) All starting materials, reagents, and solvents were purchased from common commercial suppliers and were used as such without further purification. […] Organic solutions were dried over anhydrous Na2SO4 and concentrated with rotary evaporator at low pressure. All the reactions were routinely checked by thin-layer chromatography (TLC) on silica gel 60F254 (Merck) and visualized by using UV and iodine. Flash chromatography separations were carried out on Merck silica gel 60 (mesh 230-400) or by using automated Buchi Reveleris X2-UV with column FP Ecoflex Si 12 g. Yields were of purified products and were not optimized. ^1HNMR spectra were recorded at 400 MHz (Bruker Avance DRX-400), while ^13CNMR spectra were recorded at 101 MHz (Bruker Avance DRX-400). Chemical shifts are given in ppm (δ) relative to TMS. […] Mating constant (J) are reported in Hz. The purity of the tested compounds was evaluated by HPLC analysis using Jasco LC-4000 instrument equipped with a UV-Visible Diode Array Jasco-MD4015 (Jasco Corporation, Tokyo, Japan), and XTerra MS C18 column, 5 μm×4.6 mm×150 mm (Waters Corporation, Massachusetts, USA). Chromatograms were analyzed by ChromNAV2.0 Chromatography Data System software. […] The peak retention time (ret. time) is given in minutes. […] 1-Isobutoxy-4-methoxy-2-nitrobenzene (113). Isobutyl alcohol (0.6 mL, 6.43 mmol) was added, under nitrogen atmosphere at 0° C., to a suspension of NaH (0.26 g, 6.43 mmol) in dry DMF. After 15 minutes, 1-fluoro-4-methoxy-2-nitrobenzene 112 (1 g, 5.84 mmol) was also added and the reaction mixture was stirred at 80° C. for 4 h. […] (2-Isobutoxy-5-methoxyphenyl)amine (114). Zn (1.57 g, 24 mmol) and NH4C1 (2.45 g, 40 mmol) were added to a solution of 113 (0.46 g, 2 mmol) in acetone/H2O (50 mL, ratio 5:1). The reaction mixture was stirred at 60° C. for 3 h and, then, it was filtered over celite. […] N-(2,5-diethoxyphenyl)thiourea (55). […] N-(2-isobutoxy-5-methoxyphenyl)thiourea (115). […] A solution of Br2 (0.2 mL, 3.3 mmol) in CHCl3 (5 mL) was slowly added to a suspension of 45 (0.6 g, 3.3 mmol) in CHCl3 (13 mL), at 0° C. The reaction mixture was stirred at r.t. for 4 h and, then, a 10% solution of Na2SO3 in water was added to the mixture. […] 4,7-Diethoxy-1,3-benzothiazol-2-amine (66). […] 4-Isobutoxy-7-methoxy-1,3-benzothiazol-2-amine (116). […] Hydrazine hydrate (0.23 mL, 4.77 mmol) and CH3COOH (0.12 mL, 2.1 mmol) were added to a suspension of 56 (0.29 g, 1.59 mmol) in ethylene glycol (8 mL), and the reaction mixture was stirred for 24 h at 125° C. […] 6-Ethyl-2-hydrazino-1,3-benzothiazole (69). […] 6-Ispropyl-2-hydrazino-1,3-benzothiazole (70). […] 2-Hydrazino-4,7-dimethoxy-1,3-benzothiazole (73). […] 2-Hydrazino-5,7-dimethoxy-1,3-benzothiazole (75). […] 2-Hydrazino-4,7-Diethoxy-1,3-benzothiazole (77). […] 2-Hydrazino-5-methyl[1,3]thiazolo[5,4-b]pyridine (100). […] A solution of 67 (0.13 g, 0.65 mmol) in formic acid (5 mL) was refluxed for 10 h. The reaction mixture was then poured into ice/water and the pH was neutralized using a saturated solution of NaHCO3.

The target of the next assay is T2, PARP2 (Homo sapiens, UniProt Q9UGN5).
T2 construct: made in house
T2 sequence (Q9UGN5 whole entry): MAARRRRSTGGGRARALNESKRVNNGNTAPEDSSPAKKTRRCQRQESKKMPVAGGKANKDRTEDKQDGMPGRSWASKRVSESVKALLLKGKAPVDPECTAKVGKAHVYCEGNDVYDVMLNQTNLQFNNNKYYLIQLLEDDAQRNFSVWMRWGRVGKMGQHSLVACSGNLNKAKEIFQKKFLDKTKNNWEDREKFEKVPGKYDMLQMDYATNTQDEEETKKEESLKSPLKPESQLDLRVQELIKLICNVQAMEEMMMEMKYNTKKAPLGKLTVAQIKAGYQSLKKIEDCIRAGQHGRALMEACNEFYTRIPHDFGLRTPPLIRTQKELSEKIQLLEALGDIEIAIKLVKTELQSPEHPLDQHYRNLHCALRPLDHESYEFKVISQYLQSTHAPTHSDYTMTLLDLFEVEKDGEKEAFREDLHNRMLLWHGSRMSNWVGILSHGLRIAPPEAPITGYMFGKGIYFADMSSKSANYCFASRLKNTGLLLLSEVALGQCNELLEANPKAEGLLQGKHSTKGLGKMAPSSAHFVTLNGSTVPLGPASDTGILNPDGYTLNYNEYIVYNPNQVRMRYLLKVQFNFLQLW
The assay can be described thus: biochemical. Format: biochemical. On the procedure: as §1

Where [1] appears, read: read-out: TNKS2 IC50, NAD+ consumption assay, > less than 50% inhibition at highest concentration, >> no inhibition.
[2] abbreviates: NAD+ consumption assay, > less than 50% inhibition at highest concentration, >> no inhibition.

As to `Clc1ccc2c(c1)sc1nncn12` [Compound 9], the values for the negative-log IC50 (pIC50) at TNKS2 (setting [1]) and against PARP2 (setting [2]) were 5.00 and 5.62, respectively. As to `Cc1ccc2sc3nncn3c2c1` [Compound 5, 6-Methyl[1,2,4]triazolo[3,4-b][1,3]benzothiazole], the “TNKS2 pIC50 ± SEM” value at TNKS2 (experiment repeated three times) was “(6.02 ± 0.13)”. The compound further gave a pIC50 on PARP2 (setting [2]) of 5.82. For `COc1ccc(OC)c2c1sc1n[nH]c(=S)n12` [Compound 26, 5,8-Dimethoxy[1,2,4]triazolo[3,4-b][1,3]benzothiazole-3(2H)-thione], the pIC50 on TNKS2 (setting [1]) is 4.18; against PARP2 (setting [2]) it was 4.72. With `CC(C)c1ccc2c(c1)sc1nncn12` [Compound 8, 7-Isopropyl[1,2,4]triazolo[3,4-b][1,3]benzothiazole], the values for the pIC50 on TNKS2 (setting [1]) and on PARP2 (setting [2]) were 5.02 and 5.35, respectively. Regarding `Cc1ccc2c(c1)sc1nnc(/N=C\c3ccc(Cl)cc3)n12` [Compound 25, N-[(1Z)-(4-chlorophenyl)methylene]-7-methyl[1,2,4]triazolo[3,4-b][1,3]benzothiazol-3-amine], the pIC50 at TNKS2 was below 4.00; against PARP2 (setting [2]), 5.54. For the compound `CCc1ccc2c(c1)sc1nncn12` [Compound 7, 7-Ethyl[1,2,4]triazolo[3,4-b][1,3]benzothiazole], the pIC50 at TNKS2 (setting [1]) is 5.28; against PARP2 (setting [2]) it was 5.41.

As to `Oc1cccc2c1sc1nncn12` [Compound 18, [1,2,4]Triazolo[3,4-b][1,3]benzothiazol-8-ol], the pIC50 was 4.77 on TNKS2 (setting [1]) and 4.54 at PARP2 (setting [2]). `COc1cccc2c1sc1nncn12` [Compound 14, 8-Methoxy[1,2,4]triazolo[3,4-b][1,3]benzothiazole]: the negative-log IC50 (pIC50) on TNKS2 (setting [1]) was 4.62; against PARP2, below 5.00. For `Cc1ccc(F)c2c1sc1nncn12` [Compound 4, 5-Fluoro-8-methyl[1,2,4]triazolo[3,4-b][1,3]benzothiazole], on TNKS2 (setting [1]), the pIC50 was 5.27. For the compound `COc1cccc2sc3nncn3c12` [Compound 15, 5-Methoxy[1,2,4]triazolo[3,4-b][1,3]benzothiazole], the pIC50 at TNKS2 (setting [1]) is 6.00.

Consider `Cc1cccc2c1sc1nncn12` [Compound 6, 8-Methyl[1,2,4]triazolo[3,4-b][1,3]benzothiazole], for which the pIC50 at TNKS2 (setting [1]) was 5.42; at PARP2 (setting [2]) it was 5.08. The like results for `COc1ccc2c(c1)sc1nncn12` [Compound 12] were, in that order, 5.26 and 5.06. `COc1cc(OC)c2sc3nncn3c2c1` [Compound 16, 6,8-Dimethoxy[1,2,4]triazolo[3,4-b][1,3]benzothiazole]: the negative logarithm of the IC50 (pIC50) on TNKS2 (setting [1]) was 5.12; on PARP2 (setting [2]), 4.70. `COc1ccc(OC)c2c1sc1nnc(NC(=O)C(C)(C)C)n12` [Compound 30, N-(5,8-dimethoxy[1,2,4]triazolo[3,4-b][1,3]benzothiazol-3-yl)-2,2-dimethylpropanamide]: the pIC50 against PARP2 (setting [2]) is 4.28.

`COc1ccc2sc3nncn3c2c1` [Compound 11, 6-Methoxy[1,2,4]triazolo[3,4-b][1,3]benzothiazole]: the pIC50 on TNKS2 (setting [1]) was 6.00; at PARP2 (setting [2]) it was 5.33. As for `c1ccc2c(c1)sc1nncn12` [Compound 3], the pIC50 is 5.60 on TNKS2 (setting [1]) and 5.28 on PARP2. Consider `COc1ccc(OC)c2c1sc1nncn12` [Compound 13, 5,8-Dimethoxy[1,2,4]triazolo[3,4-b][1,3]benzothiazole], for which the pIC50 on TNKS2 (setting [1]) is 5.40; against PARP2 (setting [2]) it was 5.04. For the compound `COc1ccc(OC)c2c1sc1nnc(NC(C)=O)n12` [Compound 31, N-(5,8-dimethoxy[1,2,4]triazolo[3,4-b][1,3]benzothiazol-3-yl)acetamide], the pIC50 against PARP2 (setting [2]) is 4.01. For `CSc1nnc2sc3cc(C)ccc3n12` [Compound 21, 7-Methyl-3-(methylthio)[1,2,4]triazolo[3,4-b][1,3]benzothiazole], the pIC50 against TNKS2 is below 4.00; against PARP2 (setting [2]), 4.92. As to `Cc1ccc2c(c1)sc1nncn12` [Compound 1], the negative logarithm of the IC50 (pIC50) is 5.28 at TNKS2 (setting [1]) and 5.40 against PARP2 (setting [2]). Turning to `Cc1cc(C)c2c(c1)sc1nncn12` [Compound 2], the pIC50 was 5.92 on TNKS2 (setting [1]) and 5.89 on PARP2 (setting [2]). With `Cc1ccc2c(c1)sc1nnc(NCc3ccc(Cl)cc3)n12` [Compound 24, N-(4-chlorobenzyl)-7-methyl[1,2,4]triazolo[3,4-b][1,3]benzothiazol-3-amine], the negative-log IC50 (pIC50) at TNKS2 was below 4.00; on PARP2 (setting [2]), 4.15. `Cc1ccc2c(c1)sc1nnc(SCc3ccc(Cl)cc3)n12` [Compound 23, 3-[(4-Chlorobenzyl)thio]-7-methyl[1,2,4]triazolo[3,4-b][1,3]benzothiazole]: the pIC50 against TNKS2 and at PARP2 was below 4.00 in each case.
